As a reminder, the IC50 is the point on the concentration scale where inhibition reaches its midpoint. Low values mean greater potency, high ones weaker potency.

Series [1] concerns the target Sodium-dependent dopamine transporter (Homo sapiens, UniProt Q01959). Description: Inhibition of [3H]dopamine reuptake at human DAT expressed in CHO cells after 60 mins by scintillation counting. Format: cell-based.
Series [2] addresses Sodium-dependent serotonin transporter (Homo sapiens, UniProt P31645). As to the kind of experiment: Inhibition of [3H]serotonin reuptake at human SERT expressed in CHO cells after 20 mins by scintillation counting. The class given is cell-based.
For series [3], the target named is Sodium-dependent noradrenaline transporter (Homo sapiens, UniProt P23975). Description: Inhibition of [3H]norepinephrine reuptake at human NET expressed in CHO cells after 45 mins by scintillation counting. The class given is cell-based.
Chain of Sodium-dependent noradrenaline transporter (P23975 whole entry): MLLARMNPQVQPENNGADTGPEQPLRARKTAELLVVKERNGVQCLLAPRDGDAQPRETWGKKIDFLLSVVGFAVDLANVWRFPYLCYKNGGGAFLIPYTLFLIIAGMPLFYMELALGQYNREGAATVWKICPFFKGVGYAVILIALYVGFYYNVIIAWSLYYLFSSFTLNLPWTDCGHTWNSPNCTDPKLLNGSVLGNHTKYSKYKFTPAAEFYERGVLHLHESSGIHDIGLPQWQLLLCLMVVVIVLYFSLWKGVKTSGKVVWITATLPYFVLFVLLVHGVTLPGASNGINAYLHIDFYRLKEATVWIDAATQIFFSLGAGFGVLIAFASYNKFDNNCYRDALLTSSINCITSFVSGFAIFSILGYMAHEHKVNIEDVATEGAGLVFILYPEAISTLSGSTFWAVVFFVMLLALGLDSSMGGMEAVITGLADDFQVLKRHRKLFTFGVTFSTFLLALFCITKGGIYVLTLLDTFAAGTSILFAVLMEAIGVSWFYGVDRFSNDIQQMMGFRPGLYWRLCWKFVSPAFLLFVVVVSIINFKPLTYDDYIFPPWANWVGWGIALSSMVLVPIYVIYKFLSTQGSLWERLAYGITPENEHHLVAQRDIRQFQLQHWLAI
Series [4] concerns the target Voltage-gated inwardly rectifying potassium channel KCNH2 (Homo sapiens, UniProt Q12809). As to the kind of experiment: Inhibition of human ERG.
For another series, the target named is Cytochrome P450 2D6 (Homo sapiens, UniProt P10635). As to the kind of experiment: Inhibition of CYP2D6 (unknown origin). Format: ADME.
Chain of Cytochrome P450 2D6 (P10635 whole entry): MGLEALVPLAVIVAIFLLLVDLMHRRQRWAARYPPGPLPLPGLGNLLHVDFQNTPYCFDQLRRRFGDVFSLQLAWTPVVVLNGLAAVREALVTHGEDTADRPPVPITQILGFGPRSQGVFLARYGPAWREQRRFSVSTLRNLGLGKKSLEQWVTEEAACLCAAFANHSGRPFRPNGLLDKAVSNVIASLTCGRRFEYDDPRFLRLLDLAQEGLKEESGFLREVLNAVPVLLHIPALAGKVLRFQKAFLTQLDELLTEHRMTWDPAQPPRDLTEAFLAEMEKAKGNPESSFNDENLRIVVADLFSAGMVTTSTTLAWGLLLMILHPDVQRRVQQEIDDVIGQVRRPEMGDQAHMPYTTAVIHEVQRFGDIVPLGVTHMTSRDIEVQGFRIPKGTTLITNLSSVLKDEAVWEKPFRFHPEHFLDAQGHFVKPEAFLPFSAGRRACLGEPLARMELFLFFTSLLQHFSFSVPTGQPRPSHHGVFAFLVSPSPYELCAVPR
In series [5] the test system is Mus musculus. As to the kind of experiment: Increase in extracellular dopamine level in ICR mouse prefrontal cortex at 3 mg/kg, po measured at 120 mins post dose relative to basal level by microdialysis. The class given is functional.
Series [6] concerns Mus musculus. As to the kind of experiment: Increase in extracellular 5-HT level in ICR mouse prefrontal cortex at 3 mg/kg, po measured at 120 mins post dose relative to basal level by microdialysis. Format: functional.
In series [7] the test system is Mus musculus. As to the kind of experiment: Increase in extracellular norepinephrine level in ICR mouse prefrontal cortex at 3 mg/kg, po measured at 120 mins post dose relative to basal level by microdialysis. The class given is functional.
Series [8] has as its system Mus musculus. As to the kind of experiment: Antidepressant activity in ICR mouse assessed as immobility time at 3 mg/kg, po measured 60 mins post dose by tail-suspension test. Format: functional, organism-based. Details: dose 3 mg/kg.
Series [9] relates to Mus musculus. Description: Antidepressant activity in po dosed ICR mouse assessed as immobility time measured 60 mins post dose by tail-suspension test. Format: functional, organism-based.

Activity calls are given as the source filed them. The calls are words filed in the database; no cut-off is given here.

Chain of Sodium-dependent dopamine transporter (Q01959 whole entry): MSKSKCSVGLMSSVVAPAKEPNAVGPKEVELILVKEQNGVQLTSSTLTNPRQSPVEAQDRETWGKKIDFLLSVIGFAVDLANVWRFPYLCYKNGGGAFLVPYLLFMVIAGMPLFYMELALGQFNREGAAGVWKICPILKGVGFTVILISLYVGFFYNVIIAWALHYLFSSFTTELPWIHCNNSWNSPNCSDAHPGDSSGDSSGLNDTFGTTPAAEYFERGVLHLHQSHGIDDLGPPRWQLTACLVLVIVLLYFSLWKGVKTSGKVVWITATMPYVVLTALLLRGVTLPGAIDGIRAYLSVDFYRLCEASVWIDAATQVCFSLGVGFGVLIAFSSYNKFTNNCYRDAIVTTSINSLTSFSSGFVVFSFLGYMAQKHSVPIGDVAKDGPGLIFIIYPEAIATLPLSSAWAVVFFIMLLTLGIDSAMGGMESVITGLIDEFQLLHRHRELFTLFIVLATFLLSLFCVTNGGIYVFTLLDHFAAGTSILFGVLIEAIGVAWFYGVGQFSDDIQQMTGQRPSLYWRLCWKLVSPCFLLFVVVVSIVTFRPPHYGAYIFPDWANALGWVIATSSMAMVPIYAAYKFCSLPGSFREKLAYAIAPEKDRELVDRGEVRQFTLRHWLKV
Chain of Sodium-dependent serotonin transporter (P31645 whole entry): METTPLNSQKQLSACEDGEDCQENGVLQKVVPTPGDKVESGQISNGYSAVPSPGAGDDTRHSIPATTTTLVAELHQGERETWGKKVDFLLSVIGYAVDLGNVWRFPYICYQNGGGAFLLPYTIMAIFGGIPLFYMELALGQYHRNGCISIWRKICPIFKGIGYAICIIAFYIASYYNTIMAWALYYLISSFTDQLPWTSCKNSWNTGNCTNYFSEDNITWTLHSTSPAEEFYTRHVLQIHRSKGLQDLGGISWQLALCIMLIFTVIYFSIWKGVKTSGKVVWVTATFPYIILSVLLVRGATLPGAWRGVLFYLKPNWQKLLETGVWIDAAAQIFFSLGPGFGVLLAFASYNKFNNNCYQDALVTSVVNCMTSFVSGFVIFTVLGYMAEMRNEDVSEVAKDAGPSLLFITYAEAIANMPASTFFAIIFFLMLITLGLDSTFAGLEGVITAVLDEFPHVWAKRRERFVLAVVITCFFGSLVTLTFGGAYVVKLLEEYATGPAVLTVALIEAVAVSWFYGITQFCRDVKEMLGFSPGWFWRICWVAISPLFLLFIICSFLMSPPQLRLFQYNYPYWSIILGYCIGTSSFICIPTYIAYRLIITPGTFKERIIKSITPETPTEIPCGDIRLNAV
Chain of Voltage-gated inwardly rectifying potassium channel KCNH2 (Q12809 whole entry): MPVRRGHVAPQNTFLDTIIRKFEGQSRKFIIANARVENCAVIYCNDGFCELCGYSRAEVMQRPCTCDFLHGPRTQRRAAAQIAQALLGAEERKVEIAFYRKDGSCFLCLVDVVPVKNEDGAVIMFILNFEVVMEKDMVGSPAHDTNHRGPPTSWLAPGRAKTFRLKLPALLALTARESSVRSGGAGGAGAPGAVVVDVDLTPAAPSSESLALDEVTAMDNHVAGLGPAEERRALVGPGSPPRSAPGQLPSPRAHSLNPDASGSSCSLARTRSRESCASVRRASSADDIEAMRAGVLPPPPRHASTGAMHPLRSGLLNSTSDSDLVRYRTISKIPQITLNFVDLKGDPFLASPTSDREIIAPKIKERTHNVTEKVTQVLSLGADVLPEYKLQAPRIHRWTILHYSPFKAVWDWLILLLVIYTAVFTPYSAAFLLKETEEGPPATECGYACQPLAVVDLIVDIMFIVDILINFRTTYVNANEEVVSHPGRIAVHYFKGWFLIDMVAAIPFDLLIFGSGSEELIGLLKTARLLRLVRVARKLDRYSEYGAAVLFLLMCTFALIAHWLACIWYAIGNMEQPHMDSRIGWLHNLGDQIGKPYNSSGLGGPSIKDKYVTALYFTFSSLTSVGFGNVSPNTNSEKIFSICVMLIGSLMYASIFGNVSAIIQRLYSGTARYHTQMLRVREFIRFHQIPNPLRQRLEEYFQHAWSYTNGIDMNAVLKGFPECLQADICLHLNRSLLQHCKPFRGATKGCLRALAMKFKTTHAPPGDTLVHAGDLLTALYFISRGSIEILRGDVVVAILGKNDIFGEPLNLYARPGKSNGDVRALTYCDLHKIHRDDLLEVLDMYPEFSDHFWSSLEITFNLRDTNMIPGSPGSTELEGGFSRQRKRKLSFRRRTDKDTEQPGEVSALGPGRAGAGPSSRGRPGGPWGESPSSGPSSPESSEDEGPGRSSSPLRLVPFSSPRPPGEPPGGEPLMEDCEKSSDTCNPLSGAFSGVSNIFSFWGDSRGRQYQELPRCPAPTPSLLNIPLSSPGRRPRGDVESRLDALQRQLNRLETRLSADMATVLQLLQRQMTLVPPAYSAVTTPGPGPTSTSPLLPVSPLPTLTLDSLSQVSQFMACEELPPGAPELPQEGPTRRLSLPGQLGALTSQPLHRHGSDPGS

As for `C[C@H]1NCCCN(c2ccc3ccccc3c2)C1=O`, the values for the IC50 in series [1], in series [2] and in [3] were above 10000 nM, 260 nM and 570 nM, respectively.

With `O=C1CNCC(F)(F)CN1c1ccc(Cl)c(Cl)c1`, the IC50 amounted to 8100 nM in [1], 1300 nM in [2] and 2000 nM in series [3].

Consider `Cl.O=C1CNCCCN1c1ccc(Cl)c(Cl)c1`, for which the results for the IC50 in series [1], in [2] and in series [3] were 420 nM, 50 nM and 13 nM, respectively. Moreover, the “inhibition (INH)” value (in series [4]; against Cytochrome P450 2D6) was “Not Active” in each case.

Turning to `CCC1NCCCN(c2ccc(Cl)c(Cl)c2)C1=O.Cl` (racemic), the values for the 50% inhibitory concentration (IC50) in series [1], in series [2] and in series [3] were 190 nM, 570 nM and 7.7 nM, respectively. Further, the “inhibition (INH)” value (in series [4]; against Cytochrome P450 2D6) was “Not Active” throughout.

As to `CN1CCCN(c2ccc(Cl)c(Cl)c2)C(=O)C1.Cl`, the results for the concentration for half-maximal inhibition (IC50) in series [1], in [2] and in [3] were above 10000 nM, 5500 nM and 3200 nM, respectively. In addition, the “inhibition (INH)” value (in series [4]; against Cytochrome P450 2D6) was “Not Active” in each case.

Turning to `CC1CCN(c2ccc(Cl)c(Cl)c2)C(=O)CN1.Cl` (racemic), the results for the IC50 in [1], in series [2] and in series [3] were above 10000 nM, 4300 nM and 1700 nM, respectively. Also, the “inhibition (INH)” value (in series [4]; against Cytochrome P450 2D6) was “Not Active” in each case.

`CC1CCNCC(=O)N1c1ccc(Cl)c(Cl)c1` (racemic): the IC50 in series [1] came to 4500 nM; in [2], 1900 nM; in [3] it was 660 nM.

`C[C@@H]1NCCCN(c2ccc3ccccc3c2)C1=O.Cl`: the Activity with Mus musculus [5] is 640%; with Mus musculus [6], 210%; in the series with Mus musculus [7], 750%; with Mus musculus [9], “Dose-dependent effect”. For the same compound, the IC50 in series [1] came to 160 nM; in [2], 83 nM; in series [3] it was 3.8 nM. Moreover, the “inhibition (INH)” value (in series [4]; at Cytochrome P450 2D6) was “Not Active” in each case. Further, in the series with Mus musculus [8], the result was Active.

`O=C1CNCC2(CC2)CN1c1ccc(Cl)c(Cl)c1`: the IC50 in series [1] worked out at 120 nM; in series [2], 2200 nM; in series [3], 82 nM.

As for `CC1NCCCN(c2ccc3ccccc3c2)C1=O.Cl` (racemic), the IC50 in [1] turned out to be 340 nM; in series [2], 200 nM; in [3], 14 nM. The “inhibition (INH)” value (in [4]; at Cytochrome P450 2D6) was “Not Active” in each case.

For the compound `CC1CNCC(=O)N(c2ccc(Cl)c(Cl)c2)C1` (racemic), the IC50 in series [1] was determined as 4000 nM; in series [2], 2200 nM; in series [3], 260 nM.

On to `CC1NCCCN(c2ccc(Cl)c(Cl)c2)C1=O.Cl` (racemic), for which the IC50 in [1] came to 470 nM; in [2], 530 nM; in series [3], 8 nM. Also, the “inhibition (INH)” value (in [4]; at Cytochrome P450 2D6) was “Not Active” each time.

Turning to `CCC1NCCCN(c2ccc3ccccc3c2)C1=O.Cl` (racemic), the half-inhibitory concentration (IC50) in series [1] stood at 130 nM; in [2], 88 nM; in series [3] it was 9.2 nM. The “inhibition (INH)” value (in series [4]; at Cytochrome P450 2D6) was “Not Active” each time.

The record behind these values is ChEMBL document CHEMBL3352612, “Design, synthesis, and biological activities of 1-aryl-1,4-diazepan-2-one derivatives as novel triple reuptake inhibitors” (Bioorg Med Chem Lett, 2014).
